Test results as given in patent US20100068359A1, “PRESERVATIVE METHOD” (CONOPCO, INC., D/B/A UNILEVER, priority 2008, published 2010).

Key:
APRY yeast [1] = assay: APRY yeast challenge in YM broth with equal molar salts; assay type: cell-based, Zygosaccharomyces bailii and/or Zygosaccharomyces rouxii
Experimental: • 1. The growth media of the Bidlas et al. reference was used (YM broth and stock pH (6.0). (Growth media—YMB, Sabourda, PDB • 2. Three salts (NaCl, KCl, NH4Cl) were added in a increasing level. […] The detailed salt amounts are shown in the Table 7 below. • 3. The target pH for all compositions was 5.5. • 4. The effects on APRY Yeast, instead of pathogens as in Bidlas et al. were studied. • 5. Inhibition was measured by CFUs (colony forming units) • 6. Dramatic increases in APRY yeast levels are observed after more than about two days.

APRY yeast [2] = assay: Challenge study in full fat mayonnaise model, APRY yeast; assay type: cell-based, Zygosaccharomyces bailii and/or Zygosaccharomyces rouxii
Text: • 1. […] Formula adjustments were made to keep aqueous acetic acid and sugar levels constant, i.e. % active/(% water+% active)×100, i.e., about 1.53% to about 1.54% aqueous acetic acid and about 6.32% to about 6.36% aqueous sugar. • 3. […] Analytical data supported that the per cent replacement targets were met, […] The results of the challenge study over a number of weeks were reported (see Challenge Data in the Tables 3, 4 and 5 below).

| Compound | APRY yeast level in broth (APRY yeast [1]; 0.51 N salt, day 0) | APRY yeast level in broth (APRY yeast [1]; 0.51 N salt, day 1) | APRY yeast level in broth (APRY yeast [1]; 0.51 N salt, day ½) | APRY yeast level in broth (APRY yeast [1]; 1.03 N salt, day 0) | APRY yeast level in broth (APRY yeast [1]; 1.03 N salt, day 1) | APRY yeast level in broth (APRY yeast [1]; 1.03 N salt, day 1½) | APRY yeast level in broth (APRY yeast [1]; 1.03 N salt, day ½) | APRY yeast level in broth (APRY yeast [1]; 1.54 N salt, day 0) | APRY yeast level in broth (APRY yeast [1]; 1.54 N salt, day 1) | APRY yeast level in broth (APRY yeast [1]; 1.54 N salt, day 1½) | APRY yeast level in broth (APRY yeast [1]; 1.54 N salt, day ½) | APRY yeast level in broth (APRY yeast [1]; 2.05 N salt, day 0) | APRY yeast level in broth (APRY yeast [1]; 2.05 N salt, day 1) | APRY yeast level in broth (APRY yeast [1]; 2.05 N salt, day 1½) | APRY yeast level in broth (APRY yeast [1]; 2.05 N salt, day 2) | APRY yeast level in broth (APRY yeast [1]; 2.05 N salt, day ½) | APRY yeast level in broth (APRY yeast [1]; 1.03 N salt, day 2) | APRY yeast level in broth (APRY yeast [1]; 1.54 N salt, day 2) | APRY yeast level in broth (APRY yeast [1]; 1.54 N salt, day 5) | APRY yeast level in broth (APRY yeast [1]; 1.54 N salt, day 6) | further results |
| --- | --- | --- | --- | --- | --- | --- | --- | --- | --- | --- | --- | --- | --- | --- | --- | --- | --- | --- | --- | --- | --- |
| [Cl-].[Cl-].[Mg+2] [magnesium chloride] | – | – | – | – | – | – | – | – | – | – | – | – | – | – | – | – | – | – | – | – | Z. bailii outgrowth (Z. bailii): enhance Z. bailii outgrowth |
| [Cl-].[K+] [KCl, potassium chloride] | 3,800 CFUs | 280,000 CFUs | 14,200 CFUs | 12,000 CFUs | 78,000 CFUs | 772,000 CFUs | 12,300 CFUs | 13,800 CFUs | 11,600 CFUs | 85,000 CFUs | 7,900 CFUs | 7,300 CFUs | 3,300 CFUs | 8,000 CFUs | 68,000 CFUs | 7,900 CFUs | – | – | – | – | growth of APRY yeast in the broth system (APRY yeast [1]; YM broth, target pH 5.5): does not inhibit the growth of APRY yeast |
| Cl.N [NH4Cl, ammonium chloride] | 10,200 CFUs | 260,000 CFUs | 11,700 CFUs | 8,100 CFUs | 32,000 CFUs | 14,000 CFUs | 6,000 CFUs | 10,900 CFUs | 3,100 CFUs | 7,000 CFUs | 7,200 CFUs | 8,900 CFUs | 3,100 CFUs | 10,000 CFUs | 36,100 CFUs | 5,800 CFUs | 53,000 CFUs | 39,500 CFUs | 2,200 CFUs | 3,000 CFUs | Observation: APRY outgrowth / stability (APRY yeast [2]): faster APRY die-off; APRY yeast level in broth (APRY yeast [1]; 0.51 N salt, day 1½): 672,000 CFUs; APRY yeast level in broth (APRY yeast [1]; 1.54 N salt, day 8): 2,900 CFUs; APRY yeast level in broth (APRY yeast [1]; 1.54 N salt, day 11): 4,600 CFUs; APRY yeast level in broth (APRY yeast [1]; 1.54 N salt, day 13): 40,000 CFUs; APRY yeast level in broth (APRY yeast [1]; 1.54 N salt, day 14): 84,000 CFUs; APRY yeast level in broth (APRY yeast [1]; 2.05 N salt, day 5): 700 CFUs; APRY yeast level in broth (APRY yeast [1]; 2.05 N salt, day 6): 700 CFUs; APRY yeast level in broth (APRY yeast [1]; 2.05 N salt, day 8): 1,600 CFUs; APRY yeast level in broth (APRY yeast [1]; 2.05 N salt, day 11): 400 CFUs; APRY yeast level in broth (APRY yeast [1]; 2.05 N salt, day 13): 600 CFUs; APRY yeast level in broth (APRY yeast [1]; 2.05 N salt, day 14): 800 CFUs |
| N.N.O=P(O)(O)O [DAP, di-ammonium hydrogen phosphate] | 17,600 CFUs | 324,000 CFUs | 8,100 CFUs | 21,000 CFUs | 10,200 CFUs | 24,000 CFUs | 7,100 CFUs | 6,000 CFUs | 10,300 CFUs | 2,000 CFUs | 13,000 CFUs | 10,000 CFUs | 11,500 CFUs | 6,000 CFUs | 7,100 CFUs | 9,600 CFUs | 250,000 CFUs | 6,700 CFUs | 120,900 CFUs | 117,600 CFUs | APRY yeast level in broth (APRY yeast [1]; 0.51 N salt, day 1½): 630,000 CFUs; APRY yeast level in broth (APRY yeast [1]; 1.54 N salt, day 8): 820,000 CFUs; APRY yeast level in broth (APRY yeast [1]; 1.54 N salt, day 11): 570,000 CFUs; APRY yeast level in broth (APRY yeast [1]; 1.54 N salt, day 13): 141,000 CFUs; APRY yeast level in broth (APRY yeast [1]; 1.54 N salt, day 14): 280,000 CFUs; APRY yeast level in broth (APRY yeast [1]; 2.05 N salt, day 5): 980 CFUs; APRY yeast level in broth (APRY yeast [1]; 2.05 N salt, day 6): 5,000 CFUs; APRY yeast level in broth (APRY yeast [1]; 2.05 N salt, day 8): 2,500 CFUs; APRY yeast level in broth (APRY yeast [1]; 2.05 N salt, day 11): 4,000 CFUs; APRY yeast level in broth (APRY yeast [1]; 2.05 N salt, day 13): 1,600 CFUs; APRY yeast level in broth (APRY yeast [1]; 2.05 N salt, day 14): 3,000 CFUs |
| [Ca+2].[Cl-].[Cl-] [calcium chloride] | – | – | – | – | – | – | – | – | – | – | – | – | – | – | – | – | – | – | – | – | Z. bailii outgrowth (Z. bailii): enhance Z. bailii outgrowth |
| [Cl-].[Na+] [NaCl, sodium chloride] | 13,100 CFUs | 440,000 CFUs | 4,300 CFUs | 10,000 CFUs | 3,200 CFUs | 7,000 CFUs | 6,900 CFUs | 13,200 CFUs | 2,300 CFUs | 8,000 CFUs | 3,800 CFUs | 9,800 CFUs | 2,700 CFUs | 7,000 CFUs | 4,500 CFUs | 5,100 CFUs | 29,000 CFUs | 3,900 CFUs | 2,740 CFUs | 1,840 CFUs | APRY yeast level in broth (APRY yeast [1]; 1.54 N salt, day 8): 3,600 CFUs; APRY yeast level in broth (APRY yeast [1]; 1.54 N salt, day 11): 3,300 CFUs; APRY yeast level in broth (APRY yeast [1]; 1.54 N salt, day 13): 2,900 CFUs; APRY yeast level in broth (APRY yeast [1]; 1.54 N salt, day 14): 3,500 CFUs; APRY yeast level in broth (APRY yeast [1]; 2.05 N salt, day 5): 1,730 CFUs; APRY yeast level in broth (APRY yeast [1]; 2.05 N salt, day 6): 2,110 CFUs; APRY yeast level in broth (APRY yeast [1]; 2.05 N salt, day 8): 1,600 CFUs; APRY yeast level in broth (APRY yeast [1]; 2.05 N salt, day 11): 700 CFUs; APRY yeast level in broth (APRY yeast [1]; 2.05 N salt, day 13): 700 CFUs; APRY yeast level in broth (APRY yeast [1]; 2.05 N salt, day 14): 800 CFUs |
